Experimental data taken from patent US8114408B2 (priority 2007, dated 2012).

System: mice
Conditions: mouse, in vivo, sc

Substance: 3 (RRQRRF) [compound 3]
- immune response in immunized mice (ELISA, FIG. 2): either an immune response occurred only in some individuals or a weak immune response was shown
